Values quoted from earlier work as cited in patent publication US12421507B2, “Methods and compositions for optochemical control of CRISPR-CAS9” (THE BROAD INSTITUTE, INC., priority 2018, dated 2025).

How the values were obtained:
[1] = tested on: Mutants of human FKBP12
[2] = tested on: mammalian DHFR (DHFRts); settings: cells expressing DHFRts
[3] = tested on: dystrophin exon 51; settings: across 48 weeks

## CC[C@H](C(=O)N1CCCC[C@H]1C(=O)O[C@H](CCc1ccc(OC)c(OC)c1)c1cccc(OCCN2CCOCC2)c1)c1cc(OC)c(OC)c(OC)c1 [Shield-1]
[1]
  binding to and stabilization of the DD: bind to and stabilize the DD in a dose-dependent manner

## CN(Cc1cnc2nc(N)nc(N)c2n1)c1ccc(C(=O)N[C@@H](CCC(=O)O)C(=O)O)cc1 [methotrexate]
[2]
  degradation of DHFRts: inhibited degradation of the protein partially

## eteplirsen
[3]
  average dystrophin positive fibers compared to baseline: 47%
